This is an account of results in patent US8546440B2, “Substituted bicyclic imidazole derivatives as gamma secretase modulators” (Janssen Pharmaceuticals, Inc., priority 2008, dated 2013).

For one assay, the system named is Aβ42. Put plainly: Demonstration of in vivo efficacy: Aβ42 lowering in brain after single oral dose (Table 13). To be noted: mouse brain soluble fraction, ELISA, mean, compared to untreated animals. The text has this:
To determine whether acute administration of an Aβ42 lowering agent would reduce Aβ42 levels in vivo, non-transgenic rodents, e.g. mice or rats were used. Alternatively, two to three month old Tg2576 mice expressing APP695 containing the “Swedish” variant can be used or a transgenic mouse model developed by Dr. Fred Van Leuven (K. U. Leuven, Belgium) and co-workers, with neuron-specific expression of a clinical mutant of the human amyloid precursor protein [V717I] (Moechars et al., 1999 J. Biol. Chem. 274, 6483). Young transgenic mice have high levels of Aβ in the brain but no detectable Aβ deposition. At approximately 6-8 months of age, the transgenic mice start to display spontaneous, progressive accumulation of β-amyloid (Aβ) in the brain, eventually resulting in amyloid plaques within the subiculum, hippocampus and cortex. Animals treated with the Aβ42 lowering agent were examined and compared to those untreated or treated with vehicle and brain levels of soluble Aβ42 and total Aβ would be quantitated by standard techniques, for example, using ELISA. Treatment periods varied from hours to days and were adjusted based on the results of the Aβ42 lowering once a time course of onset of effect could be established.
A typical protocol for measuring Aβ42 lowering in vivo is shown but it is only one of many variations that could be used to optimize the levels of detectable Aβ. For example, Aβ42 lowering compounds were formulated in 20% of Captisol® (a sulfobutyl ether of β-cyclodextrin) in water or 20% hydroxypropyl β cyclodextrin. The Aβ42 lowering agents were administered as a single oral dose or by any acceptable route of administration to overnight fasted animals. After four hours, the animals were sacrificed and Aβ42 levels were analysed.
Blood was collected by decapitation and exsanguinations in EDTA-treated collection tubes. Blood was centrifuged at 1900 g for 10 minutes at 4° C. and the plasma recovered and flash frozen for later analysis. The brain was removed from the cranium and hindbrain. The cerebellum was removed and the left and right hemisphere were separated. The left hemisphere was stored at −18° C. for quantitative analysis of test compound levels. The right hemisphere was rinsed with phosphate-buffered saline (PBS) buffer and immediately frozen on dry ice and stored at −80° C. until homogenization for biochemical assays.
Mouse brains were resuspended in 10 volumes of 0.4% DEA (diethylamine)/50 mM NaCl pH 10 (for non-transgenic animals) or 0.1% 3-[3-cholamidopropyl)-dimethyl-ammonio]-1-propanesulfonate (CHAPS) in tris buffered saline (TBS) (for transgenic animals) containing protease inhibitors (Roche-11873580001 or 04693159001) per gram of tissue, e.g. for 0.158 g brain, add 1.58 ml of 0.4% DEA. All samples were sonicated for 30 seconds on ice at 20% power output (pulse mode). Homogenates were centrifuged at 221.300×g for 50 min. The resulting high speed supernatants were then transferred to fresh tubes and were optionally further purified before the next step. A portion of the supernatant was neutralized with 10% 0.5 M Tris-HCl and this was used to quantify Aβtotal.
The obtained supernatants were purified with Water Oasis HLB reverse phase columns (Waters Corp., Milford, Mass.) to remove non-specific immunoreactive material from the brain lysates prior subsequent Aβ detection. Using a vacuum manifold, all solutions were passed through the columns at a rate of approximately 1 ml per minute, so the vacuum pressure was adjusted accordingly throughout the procedure. Columns were preconditioned with 1 ml of 100% MeOH, before equilibration with 1 ml of H2O. Non-neutralized brain lysates were loaded onto the columns. The loaded samples were then washed twice with the first wash performed with 1 ml of 5% MeOH, and the second wash with 1 ml of 30% MeOH. Finally, the Aβ was eluted from the columns and into 100×30 mm glass tubes, with a solution of 90% MeOH with 2% NH4OH. […]
(In general: In an ELISA, binding on a coated surface is turned into a signal by an enzyme label.)

The subject of a further assay is Aβtotal. Briefly: Screening for γ-secretase-modulating activity, Method 2: Aβtotal Alphalisa in supernatant of SKNBE2 cells carrying APP 695 wild type (Table 12c). The conditions noted are these: Method 2, Table 12c, incubated overnight. The format is cell-based. A digest of the protocol:
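SKNBE2 cells expressing wild-type APP695, 10^4 cells/well, exposed to compound overnight at 37 °C; secreted Aβ42 and Aβtotal in supernatant measured by AlphaLISA sandwich immunoassays (Aβ42: C-terminal/N-terminal antibodies; Aβtotal: N-terminal/4G8). IC50 from 4-parameter fit of % untreated control.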
Background: In Alpha technology, singlet oxygen from a donor bead excites a nearby acceptor bead.

Structures are written as SMILES.

As for `COc1cc(Nc2cccn3c(Cl)c(-c4ccc(F)cc4)nc23)ccc1-n1cnc(C)c1` [Compound 2], the “Aβ42 (% Ctrl)_Mean” value with Aβ42 turned out to be 100 % Ctrl.

Take `COc1cc(Nc2cccn3c(C)c(-c4ccccc4Cl)nc23)ccc1-n1cnc(C)c1` [Compound 15]: the “Aβ42 (% Ctrl)_Mean” value in the assay with Aβ42 amounted to 62 % Ctrl. In addition, the IC50 in the assay with Aβtotal (Homo sapiens) stood at 5.5 µM.

With `COc1cc(Nc2cccn3cc(C)nc23)ccc1-n1cnc(C)c1` [Compound 50], the “Aβ42 (% Ctrl)_Mean” value in the assay with Aβ42 was found to be 67 % Ctrl. Moreover, in the assay on Aβtotal (Homo sapiens), the IC50 was greater than 10 µM.

With `COc1cc(Nc2cccn3cc(C4CCOCC4)nc23)ccc1-n1cnc(C)c1` [Compound 4], the “Aβ42 (% Ctrl)_Mean” value in the assay on Aβ42 was determined as 93 % Ctrl. Also, the IC50 in the assay with Aβtotal (Homo sapiens) was greater than 10 µM.

For the compound `COc1cccc(-c2cn3cccc(Nc4ccc(-n5cnc(C)c5)c(OC)c4)c3n2)c1` [Compound 33], the “Aβ42 (% Ctrl)_Mean” value with Aβ42 is reported as 80 % Ctrl. The IC50 with Aβtotal (Homo sapiens) was determined as 5.75 µM.

Consider `COc1nc(Nc2cccn3c(C)c(-c4ccccc4C(F)(F)F)nc23)ccc1-n1cnc(C)c1` [Compound 138], for which, in the assay on Aβ42, the “Aβ42 (% Ctrl)_Mean” value came out at 65 % Ctrl. Besides, half-maximal inhibition in the assay with Aβtotal (IC50) was put at 5.89 µM.

Take `COc1cc(Nc2cccn3cc(-c4ccc(F)cc4)nc23)ccc1-n1cnc(C)c1` [Compound 1]: the “Aβ42 (% Ctrl)_Mean” value in the assay on Aβ42 is 65 % Ctrl. Further, the IC50 in the assay on Aβtotal (Homo sapiens) is 7.41 µM.

Turning to `COc1cc(Nc2cccn3c(C)c(-c4c(F)cccc4F)nc23)ccc1-n1cnc(C)c1` [Compound 27], the “Aβ42 (% Ctrl)_Mean” value in the assay on Aβ42 was 59 % Ctrl.

On to `COc1cc(Nc2cccn3c(C)c(-c4ccccc4)nc23)ccc1-n1cnc(C)c1` [Compound 5], for which the “Aβ42 (% Ctrl)_Mean” value in the assay with Aβ42 is listed as 66 % Ctrl.

Turning to `Cc1ncn(-c2ccc(Nc3cccn4cc(-c5ccccc5C)nc34)cc2)n1` [Compound 71], the “Aβ42 (% Ctrl)_Mean” value in the assay with Aβ42 is 91 % Ctrl. In the assay on Aβtotal (Homo sapiens), this compound displayed an IC50 greater than 3.02 µM.

Turning to `COc1cc(Nc2cccn3c(C)c(-c4ccccc4C(F)(F)F)nc23)ccc1-n1cnc(C)c1` [Compound 29], in the assay with Aβ42, the “Aβ42 (% Ctrl)_Mean” value is 56 % Ctrl. Besides, 7.08 µM corresponded to half-maximal inhibition with Aβtotal (Homo sapiens) (IC50).

One may read the IC50 as the concentration needed to halve the response being measured. High values mean a need for much substance, low ones inhibition by little substance.
